Seven compounds from PMC2632761 (Journal of biomolecular screening, 2009) can be followed below.

The target of assay [1] is T1, hPPARγ (Homo sapiens, UniProt P37231).
T1 sequence (P37231 238-503 limits assumed): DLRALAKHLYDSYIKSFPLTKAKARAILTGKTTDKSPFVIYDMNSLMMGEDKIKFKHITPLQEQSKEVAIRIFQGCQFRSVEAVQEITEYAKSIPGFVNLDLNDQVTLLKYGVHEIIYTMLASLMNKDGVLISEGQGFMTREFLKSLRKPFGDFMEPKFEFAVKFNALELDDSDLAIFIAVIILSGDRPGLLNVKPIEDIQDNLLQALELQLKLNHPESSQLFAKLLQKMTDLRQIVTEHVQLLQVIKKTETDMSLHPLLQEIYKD
Briefly: PPARγ SPA ligand competition binding assay.

For assay [2], the target named is T2, AR-LBD (androgen receptor) (Pan troglodytes, UniProt O97775).
T2 sequence (O97775 655-911 limits assumed): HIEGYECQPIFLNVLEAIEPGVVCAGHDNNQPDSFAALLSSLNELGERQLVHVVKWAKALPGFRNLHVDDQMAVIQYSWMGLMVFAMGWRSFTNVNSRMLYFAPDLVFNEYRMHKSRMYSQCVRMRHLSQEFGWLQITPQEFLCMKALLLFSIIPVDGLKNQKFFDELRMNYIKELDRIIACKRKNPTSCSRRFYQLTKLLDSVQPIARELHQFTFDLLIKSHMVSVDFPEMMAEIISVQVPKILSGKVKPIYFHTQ
Kind of assay: AR SPA ligand competition binding assay.

The target of assay [3] is T3, hTRβ (Homo sapiens, UniProt P10828).
T3 sequence (P10828 217-461 limits assumed): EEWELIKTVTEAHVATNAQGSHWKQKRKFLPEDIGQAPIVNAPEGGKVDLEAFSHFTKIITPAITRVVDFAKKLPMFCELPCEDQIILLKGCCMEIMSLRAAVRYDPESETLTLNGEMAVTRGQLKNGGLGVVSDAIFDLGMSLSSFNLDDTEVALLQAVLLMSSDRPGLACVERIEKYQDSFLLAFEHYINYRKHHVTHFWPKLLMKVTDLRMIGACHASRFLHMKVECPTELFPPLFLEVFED
Kind of assay: TRβ SPA ligand competition binding assay.

For assay [4], the target named is T4, hTRα (Homo sapiens, UniProt P10827).
T4 sequence (P10827 148-410 isoform P10827-2 limits assumed): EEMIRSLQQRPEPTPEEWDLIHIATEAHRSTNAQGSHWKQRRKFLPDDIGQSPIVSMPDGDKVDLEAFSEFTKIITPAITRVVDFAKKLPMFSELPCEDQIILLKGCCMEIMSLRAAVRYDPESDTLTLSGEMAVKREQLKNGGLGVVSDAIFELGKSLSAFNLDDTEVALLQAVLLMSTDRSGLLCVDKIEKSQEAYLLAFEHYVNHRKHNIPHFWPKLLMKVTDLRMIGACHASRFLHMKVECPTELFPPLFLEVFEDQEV
Kind of assay: TRα SPA ligand competition binding assay.

Where two headings read alike, the source gives them in different places.

As for `CCCCC/C=C\C/C=C\C/C=C\C/C=C\CCCC(=O)O` [Arachidonic Acid], the IC50 – broadly, the point on the concentration scale where inhibition reaches its midpoint – in assay [1] was 4.2 ± 0.53 µM.

Consider `O=C(Nc1ccccc1)c1cc([N+](=O)[O-])ccc1Cl` [GW9662], for which the IC50 in assay [1] (read-out: IC50 PPARγ, SPA competition, 40 nM [3H]-Rosiglitazone) was 0.23 ± 0.02 µM. Take `CC(C)(O)C(=O)Nc1ccc([N+](=O)[O-])c(C(F)(F)F)c1` [Hydroxyflutamide]: the IC50 in assay [2] turned out to be 33 ± 8 µM.

For `CCCCC/C=C\C/C=C\CCCCCCCC(=O)O` [Lineolic Acid], the concentration for half-maximal inhibition (IC50) in assay [1] is 3.8 ± 0.49 µM.

With `C[C@]1(O)CC[C@H]2[C@@H]3CCC4=CC(=O)CCC4=C3C=C[C@@]21C` [Methyltrienolone (R1881), Methyltrienolone], the IC50 in assay [2] (IC50 AR) came to 0.11 ± 0.02 µM. As for `O=C(O)c1cc(I)c(Oc2ccc(O)c(I)c2)c(I)c1` [T3Bz, 4-(4'-Hydroxy-3'-iodophenoxy)-3,5-diiodo-benzoic acid], the results for the IC50 in assay [3] and in assay [4] were 10 ± 4 µM and 12 ± 2 µM, respectively. For `O=C(O)Cc1cc(I)c(Oc2cc(I)c(O)c(I)c2)c(I)c1` [T4Ac, 3,3’,5,5’-tetraiodothyroacetic acid], the IC50 in assay [3] (read-out: IC50 TRβ, SPA competition, 1 nM [125I]-T3) was 5 ± 2 µM; in assay [4] (read-out: IC50 TRα, SPA competition, 1 nM [125I]-T3), 10 ± 2 µM.
